Data as given in patent US6998407B2, “Antagonists of MCP-1 function and methods of use thereof” (Telik, Inc., priority 2001, dated 2006).

Legend:
ICR male mice = experiment: Thioglycollate-induced inflammation model; format: in vivo; conditions: peritoneal cavity, 96 h after thioglycollate; 10 mg/kg subcutaneous at 0 h, 3 h and 16 h
Experimental: 3% Brewer's thioglycollate broth (Difco, Detroit, Mich.) was injected into the peritoneal cavity of ICR male mice, followed by subcutaneous administration of the same dose of test compound after 0 h, 3 h and 16 hours post-thioglycollate injection, respectively. After 96 h, the number of total elicited cells and MOMA2-positive cells in the peritoneal cavity was analyzed using a flowcytometer (EPICS XL, Beckman Coulter).

male Wistar rats = experiment: Anti-Thy-1 antibody induced nephritis model; format: in vivo; conditions: 1 mg/kg subcutaneous, 2 h before, immediately after, 5 h after anti-Thy-1 antibody, then twice a day for 2 days
Experimental: The efficacy of the compounds of the present invention was also evaluated in an animal model of nephritis. This model simulates very closely the conditions found in human mesangial proliferative glomerulonephritis.
Anti-Thy-1 nephritis was induced by intravenous injection of anti-Thy-1-antibody to male Wistar rats. The test compound was subcutaneously administered 2 h before, immediately after, and 5 h after the anti-Thy-1 antibody treatment, and then twice a day for the following 2 days. Anti-MCP-1 antibody was intraperitoneally injected once a day for 3 days. Seven days after the anti-Thy-1 antibody treatment, the rats were sacrificed. The kidneys were perfused with 10% formaldehyde in PBS, surgically removed, and immersed in 10% formaldehyde. The kidneys were then embedded in paraffin for glomerular histopathology or in OCT compound Miles Inc., Elkhart, Ind.) in liquid nitrogen after immersion in 30% sucrose overnight. Immunohistochemical staining was performed with a mouse anti-rat ED-1 monoclonal antibody. Briefly, […] renal sections were prepared and endogenous peroxidase blocked with 0.3% hydrogen peroxide. The sections were then blocked with Protein Block (DAKO, Japan) and stained with anti-ED-1 antibody for 45 min. […] The amount of urinary protein was determined with the DC protein assay kit (Bio-Rad, Hercules, Calif.). […]

Compound	MOMA2-positive Cells (ICR male mice)	Total Cells (ICR male mice)	Urinary Protein (male Wistar rats) [mg/day]
O=C(NC(=O)c1ccc2c(c1)OCO2)Nc1cccc(C(F)(F)F)c1 [Compound 16, 2H-Benzo[3,4-d]1,3-dioxolen-5-yl-N-({[3-(trifluoromethyl)phenyl]amino}carbonyl)carboxamide]	7.5 ± 1.6 × 10^6	8.8 ± 1.5 × 10^6	–
O=C(NC(=O)c1ccc2ncoc2c1)Nc1ccc(Cl)c(Cl)c1 [Compound 80, Benzoxazol-6-yl-N-{[(3,4-dichlorophenyl)amino]carbonyl}carboxamide]	–	–	162.1 ± 42.6
O=C(NC(=O)c1ccc2ncoc2c1)Nc1ccc(C(F)(F)F)cc1 [Compound 82, Benzoxazol-6-yl-N-({[4-(trifluoromethyl)phenyl]amino}carbonyl)carboxamide]	3.2 ± 0.4 × 10^6	4.2 ± 0.4 × 10^6	–
